# Source: paper PMC5094908 (Journal of applied toxicology : JAT, 2016)
# Key:
# SH-SY5Y = conditions: cited from earlier work
structure (smiles),measurement,setting,value
"O=c1c(O)c(-c2ccc(O)c(O)c2)oc2cc(O)cc(O)c12 [QRC, Quercetin]",cytotoxic sensitivity ([ATP] IC50) of LUHMES and/or dLUHMES relative to the other cell lines,LUHMES and dLUHMES cells,more sensitive than the other cell lines
same,In vitro neural selectivity (effect reported in SH-SY5Y),SH-SY5Y,"Toxic or protective in SH- SY5Y ([Ossola et al., 2008])"
